Results taken from patent publication US7563793B2, “Pyrrolo[1,2-a]quinoxalin-5-(4H)-yl)sulfonyls and carbonyls and their use as estrogenic agents” (Wyeth, priority 2004, dated 2009).
Like-named read-outs stand apart in the source and are kept apart here.

Legend:
ER/Nf-kB = test: ER/NF-κB luciferase reporter assay in Ad5-wt-ER infected HAECT-1 cells (IL-1β induced); type: cell-based, human; conditions: for ER/Nf-kB Efficacy: relative to maximal inhibition observed with E2
Description: (§1) After four hours, cells were washed with EBM-BSA and incubated overnight in the same medium. […] After two hours, cells were washed and incubated at 34° C. for 1 hour. […] Control (no ER infection) cells were processed as above without Ad5-wt-hERα virus infection. […] Cells were subsequently washed with 300 μl of Dulbecco's phosphate buffered saline and lysed in 50 μl of Cell Culture Lysis Reagent (Promega). Luciferase was determined on a Wallac Victor^2 Luminometer (Gaithersburg, Md.) using 10 μl of lysate and mixing with 100 lμof Promega Luciferase Assay reagent. […] For IC50 and EC50 calculations, mean IL-6, luciferase or CK values versus log10 of the compound concentration were fitted to a four parameter logistic equation. The IC50/EC50 value, ‘Hill slope’, upper and lower limits of the curve were iteratively estimated.

creatine kinase = test: Creatine kinase assay in Ad5-wt-ER infected HAECT-1 cells; type: cell-based, human; conditions: for CK Efficacy: relative to maximal stimulation observed with E2
Description: as §1

IL-6 = IL-6 assay (ELISA) in Ad5-wt-ER infected HAECT-1 cells (IL-1β induced); type: cell-based, human; conditions: Homo sapiens; for IC50: HAECT1; for Emax: HAECT1, relative to maximal inhibition observed with E2, read-out: IL-6 Efficacy
Description: as §1

SMILES | IC50 (ER/Nf-kB) | ER/Nf-kB Efficacy (ER/Nf-kB) | CK Efficacy (creatine kinase) | further results
CCC1c2ccc(F)n2-c2ccc(F)cc2N1S(=O)(=O)c1ccc(O)c(C)c1 (centres unmarked) [Example 28, 4-[(4-ethyl-1,7-difluoropyrrolo[1,2-a]quinoxalin-5-(4H)-yl)sulfonyl]-2-methylphenol] | 52 nM | 105% | 45% | –
CCC1c2cccn2-c2ccc(F)cc2N1S(=O)(=O)c1ccc(O)c(C)c1 (centres unmarked) [Example 19, 4-[(4-ethyl-7-fluoropyrrolo[1,2-a]quinoxalin-5-(4H)-yl)sulfonyl]-2-methylphenol] | 34 nM | 94% | 52% | –
CCOC(=O)Oc1ccc(S(=O)(=O)N2c3ccc(Cl)cc3-n3cccc3C2CC)cc1 (centres unmarked) [Example 70, 4-[(8-chloro-4-ethylpyrrolo[1,2-a]quinoxalin-5-(4H)-yl)sulfonyl]phenyl ethyl carbonate] | 150 nM | 98% | 45% | –
CCC1c2cccn2-c2ccc(Br)cc2N1S(=O)(=O)c1cccc(O)c1 (centres unmarked) [Example 82, 3-[(7-bromo-4-ethylpyrrolo[1,2-a]quinoxalin-5(4H)-yl)sulfonyl]phenol] | – | – | – | IC50 (IL-6): 51 nM; Emax (IL-6): 114%; melting point: 176 to 178 °C
CCC1c2cccn2-c2ccc(F)cc2N1S(=O)(=O)c1cc(C)c(O)c(C)c1 (centres unmarked) [Example 38, 4-[(4-ethyl-7-fluoropyrrolo[1,2-a]quinoxalin-5-(4H)-yl)sulfonyl]-2,6-dimethylphenol] | 201 nM | 109% | 38% | –
CCC1c2ccc(C#N)n2-c2ccc(Br)cc2N1S(=O)(=O)c1ccc(O)cc1 (centres unmarked) [Example 80, 7-bromo-4-ethyl-5-[(4-hydroxyphenyl)sulfonyl]-4,5-dihydropyrrolo[1,2-a]quinoxaline-1-carbonitrile] | – | – | – | IC50 (IL-6): 444 nM; Emax (IL-6): 103%; melting point: 190 to 192 °C
CC[C@H]1c2cccn2-c2cc(F)c(F)cc2N1S(=O)(=O)c1ccc(O)c(C)c1 [102 (S), 4-{[(4S)-4-ethyl-7,8-difluoropyrrolo[1,2-a]quinoxalin-5(4H)-yl]sulfonyl}-2-methylphenol] | – | – | – | IC50 (IL-6): 8.4 nM; Emax (IL-6): 161%; melting point: 161 to 163 °C
CC1c2cccn2-c2ccc(F)cc2N1S(=O)(=O)c1ccc(O)cc1 (centres unmarked) [Example 49, 4-[(7-fluoro-4-methylpyrrolo[1,2-a]quinoxalin-5-(4H)-yl)sulfonyl]phenol] | 67 nM | 85% | 19% | –
CC[C@@H]1c2ccc(C#N)n2-c2cc(F)c(F)cc2N1S(=O)(=O)c1ccc(O)cc1 [Example 101 (R), (4R)-4-ethyl-7,8-difluoro-5-[(4-hydroxyphenyl)sulfonyl]-4,5-dihydropyrrolo[1,2-a]quinoxaline-1-carbonitrile] | – | – | – | melting point: 194 to 195 °C
CCC1c2cccn2-c2ccc(C(F)(F)F)cc2N1S(=O)(=O)c1ccc(O)c(C)c1 (centres unmarked) [Example 58, 4-{[4-ethyl-7-(trifluoromethyl)pyrrolo[1,2-a]quinoxalin-5-(4H)-yl]sulfonyl}-2-methylphenol] | 85 nM | 132% | 42% | –
CCC1c2cccn2-c2ccc(C(F)(F)F)cc2N1S(=O)(=O)c1ccc(O)c(Cl)c1 (centres unmarked) [Example 61, 2-chloro-4-{[4-ethyl-7-(trifluoromethyl)pyrrolo[1,2-a]quinoxalin-5-(4H)-yl]sulfonyl}phenol] | 10000 nM | 69% | 15% | –
CCC1c2cccn2-c2cc(Cl)ccc2N1S(=O)(=O)c1ccc(O)cc1 (centres unmarked) [Example 71, 4-[(8-chloro-4-ethylpyrrolo[1,2-a]quinoxalin-5-(4H)-yl)sulfonyl]phenol] | 175 nM | 101% | 34% | –
CCC1c2cccn2-c2ccc(Br)cc2N1S(=O)(=O)c1ccc(O)c(C)c1 (centres unmarked) [Example 46, 4-[(7-bromo-4-ethylpyrrolo[1,2-a]quinoxalin-5-(4H)-yl)sulfonyl]-2-methylphenol] | 62 nM | 108% | 43% | –
CCC1c2ccc(F)n2-c2ccc(Br)cc2N1S(=O)(=O)c1ccc(O)cc1 (centres unmarked) [Example 45, 4-[(7-bromo-4-ethyl-1-fluoropyrrolo[1,2-a]quinoxalin-5-(4H)-yl)sulfonyl]phenol] | 12 nM | 95% | 53% | –
CCC1c2cccn2-c2ccc(Cl)cc2N1C(=O)c1ccc(O)cc1O (centres unmarked) [Example 124, 4-[(7-chloro-4-ethylpyrrolo[1,2-a]quinoxalin-5(4H)-yl)carbonyl]benzene-1,3-diol] | – | – | – | melting point: 198 to 201 °C
CCC1c2cccn2-c2ccc(F)cc2N1C(=O)c1ccc(O)cc1O (centres unmarked) [Example 120, 4-[(4-ethyl-7-fluoropyrrolo[1,2-a]quinoxalin-5(4H)-yl)carbonyl]benzene-1,3-diol] | – | – | – | melting point: 153 to 155 °C

SMILES | IC50 (ER/Nf-kB) | ER/Nf-kB Efficacy (ER/Nf-kB) | CK Efficacy (creatine kinase) | further results
CCC1c2ccc(Br)n2-c2ccc(F)cc2N1S(=O)(=O)c1ccc(O)c(C)c1 (centres unmarked) [Example 29, 4-[(1-bromo-4-ethyl-7-fluoropyrrolo[1,2-a]quinoxalin-5-(4H)-yl)sulfonyl]-2-methylphenol] | 587 nM | 100% | 28% | –
C[C@]12CC[C@@H]3c4ccc(O)cc4CC[C@H]3[C@@H]1CC[C@@H]2O [Example E2, 17β-estradiol, reference compound] | – | 100% | – | IC50 (ER/Nf-kB; Homo sapiens, HAECT1): 1.7 nM; EC50 (creatine kinase; Homo sapiens, HAECT1, CK stimulation, N/O = activity not observed at concentrations tested, read-out: CK IC50): 5.8 nM; Emax (creatine kinase; Homo sapiens, HAECT1, relative to maximal stimulation observed with E2, read-out: CK Efficacy): 100%
CCC1c2cccn2-c2ccc(F)cc2N1C(=O)c1cccc(O)c1 (centres unmarked) [Example 126, 3-[(4-ethyl-7-fluoropyrrolo[1,2-a]quinoxalin-5(4H)-yl)carbonyl]phenol] | – | – | – | melting point: 115 to 117 °C
CCC1c2cccn2-c2cc(F)c(F)cc2N1S(=O)(=O)c1ccc(O)c(C)c1 (centres unmarked) [Example 5, 4-[(4-ethyl-7,8-difluoropyrrolo[1,2-a]quinoxalin-5-(4H)-yl)sulfonyl]-2-methylphenol] | 82 nM | 99% | 37% | –
CC1c2cccn2-c2cc(F)c(F)cc2N1S(=O)(=O)c1ccc(O)cc1 (centres unmarked) [Example 10, 4-[(7,8-difluoro-4-methylpyrrolo[1,2-a]quinoxalin-5-(4H)-yl)sulfonyl]phenol] | 14 nM | 97% | 39% | –
CCC1c2ccc(C=O)n2-c2ccc(F)cc2N1S(=O)(=O)c1ccc(O)c(C)c1 (centres unmarked) [Example 25, 4-ethyl-7-fluoro-5-[(4-hydroxy-3-methylphenyl)sulfonyl]-4,5-dihydropyrrolo[1,2-a]quinoxaline-1-carboxaldehyde] | – | – | – | melting point: 192 to 194 °C
CC1c2cccn2-c2ccc(Br)cc2N1S(=O)(=O)c1ccc(O)cc1 (centres unmarked) [Example 52, 4-[(7-bromo-4-methylpyrrolo[1,2-a]quinoxalin-5-(4H)-yl)sulfonyl]phenol] | 11 nM | 100% | – | –
CCC1c2cccn2-c2ccc(Br)cc2N1S(=O)(=O)c1ccc(O)cc1 (centres unmarked) [Example 44, 4-[(7-bromo-4-ethylpyrrolo[1,2-a]quinoxalin-5-(4H)-yl)sulfonyl]phenol] | 42 nM | 97% | 51% | –
CCC1c2ccc(C(N)=O)n2-c2ccc(F)cc2N1S(=O)(=O)c1ccc(O)cc1 (centres unmarked) [Example 36, 4-ethyl-7-fluoro-5-[(4-hydroxyphenyl)sulfonyl]-4,5-dihydropyrrolo[1,2-a]quinoxaline-1-carboxamide] | – | – | – | melting point: 168 to 170 °C (dec.)
CCC1c2cccn2-c2ccc(F)cc2N1S(=O)(=O)c1ccc(O)cc1 (centres unmarked) [Example 21, 4-[(4-ethyl-7-fluoropyrrolo[1,2-a]quinoxalin-5-(4H)-yl)sulfonyl]phenol] | 71 nM | 97% | 38% | –
CC1(C)c2cccn2-c2ccc(Br)cc2N1S(=O)(=O)c1ccc(O)cc1 [Example 41, 4-[(7-bromo-4,4-dimethylpyrrolo[1,2-a]quinoxalin-5-(4H)-yl)sulfonyl]phenol] | 217 nM | 109% | 35% | –
CCC1c2cccn2-c2ccc(Cl)cc2N1S(=O)(=O)c1ccc(O)c(C)c1 (centres unmarked) [Example 68A, 4-[(7-chloro-4-ethylpyrrolo[1,2-a]quinoxalin-5-(4H)-yl)sulfonyl]-2-methylphenol] | 93 nM | 105% | 49% | –
CCC1c2cccn2-c2cc(F)c(F)cc2N1S(=O)(=O)c1ccc(O)cc1 (centres unmarked) [Example 7, 4-[(4-ethyl-7,8-difluoropyrrolo[1,2-a]quinoxalin-5-(4H)-yl)sulfonyl]phenol] | 26 nM | 113% | 37% | –
CCC1c2cccn2-c2cc(OC)c(F)cc2N1S(=O)(=O)c1ccc(O)cc1 (centres unmarked) [Example 75, 4-[(4-ethyl-7-fluoro-8-methoxypyrrolo[1,2-a]quinoxalin-5-(4H)-yl)sulfonyl]phenol] | 36 nM | 84% | 46% | –
CCC1c2cccn2-c2ccc(C(F)(F)F)cc2N1S(=O)(=O)c1ccc(O)cc1 (centres unmarked) [Example 56, 4-{[4-ethyl-7-(trifluoromethyl)pyrrolo[1,2-a]quinoxalin-5-(4H)-yl]sulfonyl}phenol] | 79 nM | 107% | – | –
